# Results: PMC11822212, “High-throughput screening identifies Aurora kinase B as a critical therapeutic target for Merkel cell carcinoma” (Nature Communications, 2025)
# Several values for one entry are separate records, joined by “and”; a condition that tells them apart may be missing. Equal values may be shown once. Read-outs that look alike come from different tables or passages of the source.
# What was measured:
# Test in all cases: qHTS cell viability (CellTiter-Glo, 72 h; primary and follow-up small molecule screen)
# Format in all cases: cell-based, human
# MCC13 cells (VN-MCC) = system: MCC13 cells (VN-MCC)
# MCC26 cells (VN-MCC) = system: MCC26 cells (VN-MCC)
# UISO cells (VN-MCC) = system: UISO cells (VN-MCC)
# WAGA cells (VP-MCC) = system: WAGA cells (VP-MCC)
# MKL-1 cells (VP-MCC) = system: MKL-1 cells (VP-MCC)
# MKL-2 cells (VP-MCC) = system: MKL-2 cells (VP-MCC)
# [1] = follow-up screen, MCC13, replicate 1
# [2] = follow-up screen, MCC13, replicate 2
# [3] = follow-up screen, MCC13, replicate 3
# [4] = follow-up screen, MCC26, replicate 1
# [5] = follow-up screen, MCC26, replicate 2
# [6] = follow-up screen, MCC26, replicate 3
# [7] = follow-up screen, UISO, replicate 1
# [8] = follow-up screen, UISO, replicate 2
# [9] = follow-up screen, UISO, replicate 3
# [10] = follow-up screen, WAGA, replicate 1
# [11] = follow-up screen, WAGA, replicate 2
# [12] = follow-up screen, WAGA, replicate 3
# [13] = follow-up screen, MKL-1, replicate 1
# [14] = follow-up screen, MKL-1, replicate 2
# [15] = follow-up screen, MKL-1, replicate 3
# [16] = follow-up screen, MKL-2, replicate 1
# [17] = follow-up screen, MKL-2, replicate 2
# [18] = follow-up screen, MKL-2, replicate 3
Structure (SMILES),Area under the dose-response curve (AUC) MCC13 Replicate 1 (MCC13 cells (VN-MCC); [1]),Area under the dose-response curve (AUC) MCC13 Replicate 2 (MCC13 cells (VN-MCC); [2]),Area under the dose-response curve (AUC) MCC13 Replicate 3 (MCC13 cells (VN-MCC); [3]),Area under the dose-response curve (AUC) MCC26 Replicate 1 (MCC26 cells (VN-MCC); [4]),Area under the dose-response curve (AUC) MCC26 Replicate 2 (MCC26 cells (VN-MCC); [5]),Area under the dose-response curve (AUC) MCC26 Replicate 3 (MCC26 cells (VN-MCC); [6]),Area under the dose-response curve (AUC) UISO Replicate 1 (UISO cells (VN-MCC); [7]),Area under the dose-response curve (AUC) UISO Replicate 2 (UISO cells (VN-MCC); [8]),Area under the dose-response curve (AUC) UISO Replicate 3 (UISO cells (VN-MCC); [9]),Area under the dose-response curve (AUC) WAGA Replicate 1 (WAGA cells (VP-MCC); [10]),Area under the dose-response curve (AUC) WAGA Replicate 2 (WAGA cells (VP-MCC); [11]),Area under the dose-response curve (AUC) WAGA Replicate 3 (WAGA cells (VP-MCC); [12]),Area under the dose-response curve (AUC) MKL-1 Replicate 1 (MKL-1 cells (VP-MCC); [13]),Area under the dose-response curve (AUC) MKL-1 Replicate 2 (MKL-1 cells (VP-MCC); [14]),Area under the dose-response curve (AUC) MKL-1 Replicate 3 (MKL-1 cells (VP-MCC); [15]),Area under the dose-response curve (AUC) MKL-2 Replicate 1 (MKL-2 cells (VP-MCC); [16]),Area under the dose-response curve (AUC) MKL-2 Replicate 2 (MKL-2 cells (VP-MCC); [17]),Area under the dose-response curve (AUC) MKL-2 Replicate 3 (MKL-2 cells (VP-MCC); [18]),Area under the dose-response curve (AUC) MCC13 Replicate 1 (MCC13 cells (VN-MCC)),Area under the dose-response curve (AUC) MCC13 Replicate 2 (MCC13 cells (VN-MCC)),also measured
COc1ccc(OC)c(-c2nnc3ccc(-c4ccc(OC)c(O[C@@H]5CCOC5)c4)nn23)c1 [NCGC00168459-01],471.2,476.6,471.3,450.8,439.4,478.6,435.8,424.6,430.2,480.8,429.3,424.9,460.8,464.3,463.4,463.7,433.6,459.9,,,
CCCCCCCCC(=O)NCc1ccc(O)c(OC)c1 [Nonivamide],,,,,,,,,,,,,,,,,,,513.1,478.1,Area under the dose-response curve (AUC) MCC13 Replicate 3 (MCC13 cells (VN-MCC)): 523.7; Area under the dose-response curve (AUC) MCC26 Replicate 1 (MCC26 cells (VN-MCC)): 453.4; Area under the dose-response curve (AUC) MCC26 Replicate 2 (MCC26 cells (VN-MCC)): 445.4; Area under the dose-response curve (AUC) MCC26 Replicate 3 (MCC26 cells (VN-MCC)): 466.4; Area under the dose-response curve (AUC) UISO Replicate 1 (UISO cells (VN-MCC)): 479.2; Area under the dose-response curve (AUC) UISO Replicate 2 (UISO cells (VN-MCC)): 501.4; Area under the dose-response curve (AUC) UISO Replicate 3 (UISO cells (VN-MCC)): 453.6; Area under the dose-response curve (AUC) WAGA Replicate 1 (WAGA cells (VP-MCC)): 544.9; Area under the dose-response curve (AUC) WAGA Replicate 2 (WAGA cells (VP-MCC)): 499.1; Area under the dose-response curve (AUC) WAGA Replicate 3 (WAGA cells (VP-MCC)): 488.2; Area under the dose-response curve (AUC) MKL-1 Replicate 1 (MKL-1 cells (VP-MCC)): 491.5; Area under the dose-response curve (AUC) MKL-1 Replicate 2 (MKL-1 cells (VP-MCC)): 481.8; Area under the dose-response curve (AUC) MKL-1 Replicate 3 (MKL-1 cells (VP-MCC)): 491.3; Area under the dose-response curve (AUC) MKL-2 Replicate 1 (MKL-2 cells (VP-MCC)): 520.2; Area under the dose-response curve (AUC) MKL-2 Replicate 2 (MKL-2 cells (VP-MCC)): 501.6; Area under the dose-response curve (AUC) MKL-2 Replicate 3 (MKL-2 cells (VP-MCC)): 494.8
C[C@@H]1O[C@@H](O[C@H]2C[C@@H](O)[C@]3(CO)[C@H]4[C@H](O)C[C@]5(C)[C@@H](C6=CC(=O)OC6)CC[C@]5(O)[C@@H]4CC[C@]3(O)C2)[C@H](O)[C@H](O)[C@H]1O [G-Strophanthin],250.1,222.2,219.6,280.5,322.9,231.8,241.1,235.2,205.5,307.5,286.8,292.2,297.3,274.0,262.6,279.7,288.8,290.5,,,
CCc1c2c(nc3ccc(O)cc13)-c1cc3c(c(=O)n1C2)COC(=O)[C@]3(O)CC [SN-38],218.6,222.5,261.5,201.3,194.5,189.1,127.3,148.1,144.2,143.8,150.1,140.2,135.7,150.7,162.0,131.4,119.7,221.9,,,
CCC(=O)CCCCC[C@@H]1NC(=O)[C@H]2CCCCN2C(=O)[C@H]([C@@H](C)CC)NC(=O)[C@H](Cc2cn(OC)c3ccccc23)NC1=O [Apicidin],,,,,,,,,,,,,,,,,,,352.8,341.2,Area under the dose-response curve (AUC) MCC13 Replicate 3 (MCC13 cells (VN-MCC)): 320.0; Area under the dose-response curve (AUC) MCC26 Replicate 1 (MCC26 cells (VN-MCC)): 312.3; Area under the dose-response curve (AUC) MCC26 Replicate 2 (MCC26 cells (VN-MCC)): 327.5; Area under the dose-response curve (AUC) MCC26 Replicate 3 (MCC26 cells (VN-MCC)): 296.4; Area under the dose-response curve (AUC) UISO Replicate 1 (UISO cells (VN-MCC)): 287.8; Area under the dose-response curve (AUC) UISO Replicate 2 (UISO cells (VN-MCC)): 286.2; Area under the dose-response curve (AUC) UISO Replicate 3 (UISO cells (VN-MCC)): 272.4; Area under the dose-response curve (AUC) WAGA Replicate 1 (WAGA cells (VP-MCC)): 264.4; Area under the dose-response curve (AUC) WAGA Replicate 2 (WAGA cells (VP-MCC)): 253.3; Area under the dose-response curve (AUC) WAGA Replicate 3 (WAGA cells (VP-MCC)): 235.6; Area under the dose-response curve (AUC) MKL-1 Replicate 1 (MKL-1 cells (VP-MCC)): 315.8; Area under the dose-response curve (AUC) MKL-1 Replicate 2 (MKL-1 cells (VP-MCC)): 299.2; Area under the dose-response curve (AUC) MKL-1 Replicate 3 (MKL-1 cells (VP-MCC)): 285.0; Area under the dose-response curve (AUC) MKL-2 Replicate 1 (MKL-2 cells (VP-MCC)): 250.3; Area under the dose-response curve (AUC) MKL-2 Replicate 2 (MKL-2 cells (VP-MCC)): 267.1; Area under the dose-response curve (AUC) MKL-2 Replicate 3 (MKL-2 cells (VP-MCC)): 303.9
O=C(O)CC(C(=O)O)n1c(O)c(C2=c3cc(Br)ccc3=NC2=O)sc1=S (stereo not drawn) [BCL6 Inhibitor],,,,,,,,,,,,,,,,,,,,,Area under the dose-response curve (AUC) (MCC13 cells (VN-MCC)): 512.5 and 484.7 and 473.4; Area under the dose-response curve (AUC) (MCC26 cells (VN-MCC)): 463.9 and 441.3 and 491.7; Area under the dose-response curve (AUC) (UISO cells (VN-MCC)): 463.7 and 453.9 and 421.4; Area under the dose-response curve (AUC) (WAGA cells (VP-MCC)): 531.4 and 497.2 and 476.9; Area under the dose-response curve (AUC) (MKL-1 cells (VP-MCC)): 525.6 and 554.1 and 496.0; Area under the dose-response curve (AUC) (MKL-2 cells (VP-MCC)): 493.8 and 494.8 and 466.7
CCC(=O)NC[C@H](Cc1ccc(OCCc2nc(-c3ccccc3)oc2C)cc1)N/C(C)=C\C(=O)c1ccc(C(F)(F)F)cc1 [GW-6471],,,,,,,,,,,,,,,,,,,508.4,489.8,Area under the dose-response curve (AUC) MCC13 Replicate 3 (MCC13 cells (VN-MCC)): 459.0; Area under the dose-response curve (AUC) MCC26 Replicate 1 (MCC26 cells (VN-MCC)): 466.5; Area under the dose-response curve (AUC) MCC26 Replicate 2 (MCC26 cells (VN-MCC)): 438.7; Area under the dose-response curve (AUC) MCC26 Replicate 3 (MCC26 cells (VN-MCC)): 475.7; Area under the dose-response curve (AUC) UISO Replicate 1 (UISO cells (VN-MCC)): 430.2; Area under the dose-response curve (AUC) UISO Replicate 2 (UISO cells (VN-MCC)): 426.3; Area under the dose-response curve (AUC) UISO Replicate 3 (UISO cells (VN-MCC)): 403.1; Area under the dose-response curve (AUC) WAGA Replicate 1 (WAGA cells (VP-MCC)): 517.9; Area under the dose-response curve (AUC) WAGA Replicate 2 (WAGA cells (VP-MCC)): 512.0; Area under the dose-response curve (AUC) WAGA Replicate 3 (WAGA cells (VP-MCC)): 484.1; Area under the dose-response curve (AUC) MKL-1 Replicate 1 (MKL-1 cells (VP-MCC)): 475.3; Area under the dose-response curve (AUC) MKL-1 Replicate 2 (MKL-1 cells (VP-MCC)): 443.7; Area under the dose-response curve (AUC) MKL-1 Replicate 3 (MKL-1 cells (VP-MCC)): 500.6; Area under the dose-response curve (AUC) MKL-2 Replicate 1 (MKL-2 cells (VP-MCC)): 432.8; Area under the dose-response curve (AUC) MKL-2 Replicate 2 (MKL-2 cells (VP-MCC)): 489.1; Area under the dose-response curve (AUC) MKL-2 Replicate 3 (MKL-2 cells (VP-MCC)): 475.3
CO/C1=C\C(C)=C\[C@@H](C)[C@@H](O)[C@@H](C)C/C(C)=C/C=C/[C@H](OC)[C@@H]([C@@H](C)[C@@H](O)[C@H](C)[C@@]2(O)C[C@@H](O)[C@H](C)[C@@H](C(C)C)O2)OC1=O [Bafilomycin A1],343.3,351.4,328.2,325.4,330.5,331.3,306.5,264.4,311.8,341.4,394.8,342.5,341.8,384.5,316.5,338.8,333.5,368.3,,,
CC(C)=CCC[C@]1(C)C=Cc2c(O)c3c(c(CC=C(C)C)c2O1)O[C@]12C(=C[C@@H]4C[C@H]1C(C)(C)O[C@@]2(C/C=C(/C)C(=O)O)C4=O)C3=O [GAMBOGIC ACID],387.5,370.7,367.8,329.0,325.1,343.3,286.6,299.4,341.5,304.1,265.2,369.1,308.8,334.5,328.9,279.3,285.4,317.0,,,
